Laboratory results published in DBAASP.
≈ marks a conversion by molar mass, not a printed value.

Columns and labels:
Assay in all cases: ≥ marks a high value that may be exact or a test limit, other limits are often not marked, values filed in µg/mL are converted to µM
Escherichia coli D31 = test system: Escherichia coli D31
[1] = test system: Pseudomonas aeruginosa ATCC 10145
[2] = test system: Salmonella enterica subsp. enterica serovar Typhimurium ATCC 700931
[3] = test system: Staphylococcus aureus ATCC 27660
[4] = test system: Staphylococcus epidermidis ATCC 14990
Bacillus subtilis DELTA = test system: Bacillus subtilis DELTA
Candida parapsilosis = test system: Candida parapsilosis
[5] = test system: Escherichia coli DH5alpha
[6] = test system: Pseudomonas aeruginosa PAO1
[7] = test system: Zymomonas mobilis ATCC 10988
[8] = test system: Streptococcus mutans UA159
[9] = test system: Streptococcus sanguinis ATCC 10556
[10] = test system: Streptococcus sobrinus ATCC 6715
[11] = test system: Bacillus magaterium AB90008
[12] = test system: Enterobacter cloacae AB2010162
[13] = test system: Micrococcus luteus AB2010179
Pseudomonas fluorescens = test system: Pseudomonas fluorescens
Pseudomonas putida = test system: Pseudomonas putida
[14] = test system: Salmonella enterica AB2010185
[15] = test system: Staphylococcus aureus AB94004
[16] = test system: Bacillus cereus ATCC 11778
[17] = test system: Escherichia coli ATCC 25922
[18] = test system: Klebsiella aerogenes ATCC 13048
[19] = test system: Salmonella enterica subsp. enterica serovar Typhimurium ATCC 14028
[20] = test system: Staphylococcus aureus ATCC 29213
[21] = test system: Escherichia coli NBRC 3972
[22] = test system: Pseudomonas aeruginosa NBRC 13275
[23] = test system: Staphylococcus aureus NBRC 13276
Escherichia coli C600 = test system: Escherichia coli C600
[24] = test system: Staphylococcus aureus 209P

An MIC (Escherichia coli D31) of 0.94 µM (≈ 1.94 µg/mL), an MIC [1] of 1.88 µM (≈ 3.89 µg/mL) and an MIC [2] of 1.88 µM (≈ 3.89 µg/mL) were found for `CC(C)C[C@H](NC(=O)[C@H](C)N)C(=O)N[C@@H](Cc1c[nH]c2ccccc12)C(=O)N[C@@H](CCCCN)C(=O)N[C@@H](CCCCN)C(=O)N[C@@H](CC(C)C)C(=O)N[C@@H](CC(C)C)C(=O)N[C@@H](CCCCN)C(=O)N[C@@H](CCCCN)C(=O)N[C@@H](CC(C)C)C(=O)N[C@@H](CC(C)C)C(=O)N[C@@H](CCCCN)C(=O)N[C@@H](CO)C(=O)N[C@@H](C)C(=O)N[C@@H](CCCCN)C(=O)N[C@@H](CCCCN)C(=O)N[C@@H](CC(C)C)C(=O)NCC(=O)O` [ALWKKLLKKLLKSAKKLG] in this work. It also gave an MIC [3] of 1.88 µM (≈ 3.89 µg/mL) and an MIC [4] of 0.94 µM (≈ 1.94 µg/mL).
An MIC (Escherichia coli D31) of 3.75 µM (≈ 7.43 µg/mL), an MIC [1] of 7.5 µM (≈ 14.9 µg/mL) and an MIC [2] of 7.5 µM (≈ 14.9 µg/mL) were found for `CC(C)[C@H](NC(=O)[C@H](C)N)C(=O)N[C@@H](Cc1c[nH]c2ccccc12)C(=O)N[C@@H](CCCCN)C(=O)N[C@@H](CCCCN)C(=O)N[C@H](C(=O)N[C@H](C(=O)N[C@@H](CCCCN)C(=O)N[C@@H](CCCCN)C(=O)N[C@H](C(=O)N[C@H](C(=O)N[C@@H](CCCCN)C(=O)N[C@@H](CO)C(=O)N[C@@H](C)C(=O)N[C@@H](CCCCN)C(=O)N[C@@H](CCCCN)C(=O)N[C@H](C(=O)NCC(=O)O)C(C)C)C(C)C)C(C)C)C(C)C)C(C)C` [AVWKKVVKKVVKSAKKVG] in this work. For the same molecule, the MIC [3] was 7.5 µM (≈ 14.9 µg/mL) and the MIC [4] was 7.5 µM (≈ 14.9 µg/mL).
An MIC (Bacillus subtilis DELTA) of 6.04 µM (≈ 10.2 µg/mL), an MIC (Candida parapsilosis) of 24.2 µM (≈ 41 µg/mL) and an MIC [5] of at least 60.4 µM were found for `CC[C@H](C)[C@H](NC(=O)[C@H](CCCN=C(N)N)NC(=O)[C@H](CCCCN)NC(=O)[C@H](Cc1ccccc1)NC(C)=O)C(=O)N[C@H](C(=O)N[C@@H](CCC(N)=O)C(=O)N[C@@H](CC(C)C)C(=O)N[C@@H](CC(C)C)C(=O)N[C@@H](CCCCN)C(=O)N[C@@H](CCCCN)C(=O)N[C@@H](CC(C)C)C(=O)N[C@@H](CC(C)C)C(=O)N[C@@H](CCCN=C(N)N)C(N)=O)C(C)C` [FKRIVQLLKKLLR] in this work. The MIC [6] was 1.81 µM (≈ 3.07 µg/mL) and the MIC [7] was 3.02 µM (≈ 5.12 µg/mL).
An MIC [8] of at least 279 µM, an MIC [9] of at least 279 µM and an MIC [10] of at least 279 µM were found for `CC(C)[C@H](NC(=O)[C@H](CCCCN)NC(=O)[C@H](C)NC(=O)[C@H](C)NC(=O)[C@H](CCCCN)NC(=O)[C@H](CCCCN)NC(=O)[C@H](Cc1ccccc1)NC(=O)[C@H](Cc1ccccc1)NC(=O)[C@H](CCCCN)NC(=O)CNC(=O)[C@H](Cc1c[nH]c2ccccc12)NC(=O)CN)C(=O)NCC(=O)N[C@@H](CCCCN)C(=O)N[C@@H](CCCCN)C(=O)N[C@H](C(=O)NCC(=O)O)C(C)C` [GWGKFFKKAAKVGKKVG] in this work.
An MIC [8] of 9.13 µM (≈ 16 µg/mL), an MIC [9] of 9.13 µM (≈ 16 µg/mL) and an MIC [10] of 9.13 µM (≈ 16 µg/mL) were found for `NCCCC[C@H](NC(=O)CNC(=O)[C@H](Cc1ccccc1)NC(=O)[C@H](CCCCN)NC(=O)[C@H](Cc1ccccc1)NC(=O)[C@H](Cc1ccccc1)NC(=O)[C@H](CCCCN)NC(=O)[C@H](CCCCN)NC(=O)[C@H](Cc1ccccc1)NC(=O)[C@H](Cc1ccccc1)NC(=O)[C@H](CCCCN)NC(=O)CNC(=O)[C@H](Cc1c[nH]c2ccccc12)NC(=O)CN)C(=O)O` [GWGKFFKKFFKFGK] in this work.
An MIC [11] of at least 50 µM, an MIC [12] of at least 82 µM and an MIC [5] of at least 82 µM were found for `CC[C@H](C)[C@H](N)C(=O)N[C@@H](CC(C)C)C(=O)NCC(=O)N[C@@H](CCCCN)C(=O)N[C@H](C(=O)N[C@@H](Cc1c[nH]c2ccccc12)C(=O)N[C@@H](CCCCN)C(=O)NCC(=O)N[C@H](C(=O)N[C@@H](CCCCN)C(=O)N[C@@H](CC(N)=O)C(=O)N[C@H](C(=O)N[C@@H](CC(C)C)C(N)=O)[C@@H](C)CC)[C@@H](C)CC)[C@@H](C)CC` [ILGKIWKGIKNIL] in this work. The MIC [13] was 2 µM (≈ 2.99 µg/mL), the MIC (Pseudomonas fluorescens) was at least 32 µM and the MIC (Pseudomonas putida) was 16 µM (≈ 23.9 µg/mL). The MIC [14] was at least 35 µM and the MIC [15] was 12 µM (≈ 17.9 µg/mL).
An MIC [16] of at least 67.8 µM, an MIC [17] of over 67.8 µM and an MIC [18] of at least 67.8 µM were found for `CC[C@H](C)[C@H](N)C(=O)N[C@@H](CC(C)C)C(=O)NCC(=O)N[C@@H](CCCCN)C(=O)N[C@H](C(=O)N[C@@H](Cc1c[nH]c2ccccc12)C(=O)N[C@@H](CCC(=O)O)C(=O)NCC(=O)N[C@H](C(=O)N[C@@H](CCCCN)C(=O)N[C@@H](CO)C(=O)N[C@@H](CC(C)C)C(=O)N[C@@H](Cc1ccccc1)C(N)=O)C(C)C)C(C)C` [ILGKVWEGVKSLF] in this work. It also gave an MIC [19] of over 67.8 µM and an MIC [20] of over 67.8 µM.
An MIC [21] of at least 800 µM, an MIC [22] of at least 800 µM and an MIC [23] of at least 800 µM were found for `CC(=O)N[C@@H](CCCCN)C(=O)N[C@@H](CCCCN)C(=O)NCC(=O)N[C@@H](CCCCN)C(=O)N[C@@H](CCCCN)C(=O)NCC(=O)N[C@@H](CCCCN)C(=O)N[C@@H](CCCCN)C(=O)NCC(N)=O` [KKGKKGKKG] in this work.
An MIC (Bacillus subtilis DELTA) of at least 32.2 µM, an MIC (Candida parapsilosis) of 24.1 µM (≈ 30 µg/mL) and an MIC [5] of at least 322 µM were found for `CC[C@H](C)[C@H](NC(=O)[C@H](Cc1ccccc1)NC(=O)[C@H](CCCCN)NC(=O)[C@H](CC(C)C)NC(=O)[C@H](CC(C)C)NC(=O)[C@@H](N)CCCCN)C(=O)N[C@@H](CCCCN)C(=O)N[C@@H](CCCCN)C(=O)N[C@@H](CC(C)C)C(=O)N[C@@H](CC(C)C)C(N)=O` [KLLKFIKKLL] in this work. For the same molecule, the MIC [7] was 8.04 µM (≈ 9.99 µg/mL).
An MIC (Escherichia coli C600) of 3.13 µM (≈ 7.33 µg/mL), an MIC [6] of 50 µM (≈ 117 µg/mL) and an MIC [24] of 3.13 µM (≈ 7.33 µg/mL) were found for `CC(C)[C@@H]1NC(=O)CNC(=O)[C@H](CCCN=C(N)N)NC(=O)[C@H](CCCN=C(N)N)NC(=O)[C@H](CCCN=C(N)N)NC(=O)[C@H](C)NC(=O)[C@H](Cc2ccc(O)cc2)NC(=O)[C@H](C(C)C)NC(=O)[C@@H](NC(=O)[C@H](Cc2c[nH]c3ccccc23)NC(=O)[C@@H](N)CCCN=C(N)N)CSSC[C@@H](C(=O)N[C@@H](Cc2c[nH]c3ccccc23)C(=O)O)NC(=O)[C@H](CCCN=C(N)N)NC(=O)[C@H](CCCN=C(N)N)NC(=O)[C@H](Cc2ccc(O)cc2)NC(=O)[C@H](CCCN=C(N)N)NC1=O` [RWCVYARRRGVRYRRCW] in this work.
